# Patent US20250388560A1, “AROMATIC COMPOUND AND USE THEREOF” (HITGEN INC., priority 2023, published 2025)
# Target: TRIM21 protein (Homo sapiens (Human), UniProt P19474)
# Experiment: SPR binding assay (Biacore 8K) of compounds to immobilised TRIM21 protein
# Conditions: 25° C., steady state affinity model (1:1 binding model), read-out: TRIM21 Kd Test Value
# Description: The protein fixation buffer, the running buffer A and the running buffer B were prepared and filtered through a […] membrane prior to use.
# A surface of a CM5 chip was washed for three times with 50 mM NaOH at a flow rate of 60.0 μL/min and 60 seconds per wash. […] The CM5 chip was activated for 420 s at a flow rate of 6.0 μL/min. A strep tactin XT fixation buffer fixation built in the twin strep tag capture kit was used to prepare a 50.0 µg/mL Strep tactin XT. The Strep tactin XT was injected at a flow rate of 5.0 μL/min for 600 s. After injection of […], 1 M ethanolamine from the amine coupling kit was injected at a flow rate of 6.0 μL/min for 7 min to close the surface of the CM5 chip.
# The running buffer A was used as the protein fixation buffer. The protein fixation buffer and the TRIM21 protein were mixed to prepare a 40.0 µg/mL mixed solution. The 40.0 µg/mL mixed solution was injected at flow rate of 5.0 μL/min for 600 s, and the TRIM21 protein was captured on the CM5 chip through Strep tactin XT.
# A compound to be tested was diluted with 100% DMSO to a concentration that was 100 times a required final concentration and mixed evenly, and […] of such solution was added into […] of the running buffer A, followed by centrifugation at 15,000 rpm for 5 min to obtain an X compound solution contained with 1% DMSO.
# The X compound was subjected to 8-point, 2-fold serial dilutions with the running buffer B, starting from an initial concentration. The diluted X compound was transferred into the 96-well plate for sample injection.
# A Biacore 8K Control software was started, and tests were run in a 25° C. environment. During program running, the running buffer B was used at a flow rate of 30.0 μL/min. The running buffer B was injected for three times to complete balance. […] An injection needle was cleaned with 50% DMSO after each injection.
# A response value of binding of the X compound and the TRIM21 protein was corrected after deducting a reference channel and 0 concentration. A binding affinity Kd was matched by a steady state affinity model (1:1 binding model) through the Biacore Insight Evaluation Software.
# The binding affinities between X compounds of the embodiments of the present disclosure were tested according the above method.
# TRIM21 protein, sequence (P19474 whole entry, species assumed): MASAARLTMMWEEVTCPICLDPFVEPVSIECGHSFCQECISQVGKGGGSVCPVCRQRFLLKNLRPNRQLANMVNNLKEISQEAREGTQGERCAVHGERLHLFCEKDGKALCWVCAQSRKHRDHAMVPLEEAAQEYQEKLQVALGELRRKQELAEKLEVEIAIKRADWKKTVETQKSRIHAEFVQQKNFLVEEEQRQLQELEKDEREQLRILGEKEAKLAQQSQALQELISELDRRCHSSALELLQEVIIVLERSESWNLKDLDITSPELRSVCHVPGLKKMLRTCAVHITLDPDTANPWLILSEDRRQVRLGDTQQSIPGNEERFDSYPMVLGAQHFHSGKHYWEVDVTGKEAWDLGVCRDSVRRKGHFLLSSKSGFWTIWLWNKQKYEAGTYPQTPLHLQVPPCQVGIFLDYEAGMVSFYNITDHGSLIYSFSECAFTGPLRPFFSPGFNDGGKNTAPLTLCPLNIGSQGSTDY
row,Structure (SMILES),Kd
1,COc1ccccc1-c1ccc(C(=O)N(C)[C@H](C)C2CCC2)c(S(C)(=O)=O)c1 [Compound 24],1000 to 10000 nM
2,COc1cc(F)ccc1-c1ccc(C(=O)N(C)CC2CCCCC2)c(S(C)(=O)=O)c1 [Compound 52],1 to 10 nM
3,CN(CC1CCCCC1)C(=O)c1ccc(-c2ccccc2F)cc1S(C)(=O)=O [Compound 45],1000 to 10000 nM
4,CSc1ccccc1-c1ccc(C(=O)N(C)CC2CCOCC2)c(S(C)(=O)=O)c1 [Compound 23],10 to 100 nM
5,COc1ccccc1-c1ccc(C(=O)N(C)Cc2cc[nH]c2)c(S(C)(=O)=O)c1 [Compound 29],10 to 100 nM
6,CSc1ccccc1-c1ccc(C(=O)N(C)CC2CCCCC2(F)F)c(S(C)(=O)=O)c1 (stereo not shown) [Compound 5],1000 to 10000 nM
7,COc1ccccc1-c1ccc(C(=O)N(C)C(C)C2COC2)c(S(C)(=O)=O)c1 (stereo not shown) [Compound 31],1000 to 10000 nM
8,COc1ccccc1-c1ccc(C(=O)N(C)CC2CCOC2)c(S(C)(=O)=O)c1 (stereo not shown) [Compound 25],1000 to 10000 nM
9,CSc1ccccc1-c1ccc(C(=O)N(C)CC2(F)CCCCC2)c(S(C)(=O)=O)c1 [Compound 6],100 to 1000 nM
10,COc1ccccc1-c1ccc(C(=O)N(C)CC2CCCCC2)c(S(C)(=O)=O)c1 [Compound 37],100 to 1000 nM
11,COc1cnccc1-c1ccc(C(=O)N(C)CC2CCCCC2)c(S(C)(=O)=O)c1 [Compound 43],1000 to 10000 nM
12,CCC(CC)CN(C)C(=O)c1ccc(-c2ccccc2SC)cc1S(C)(=O)=O [Compound 10],100 to 1000 nM
13,CSc1ccccc1-c1ccc(C(=O)N(C)CC2CCOC2)c(S(C)(=O)=O)c1 (stereo not shown) [Compound 15],100 to 1000 nM
14,COc1ccccc1-c1ccc(C(=O)N(C)CC2CCOCC2)c(S(C)(=O)=O)c1 [Compound 34],100 to 1000 nM
15,COc1ccccc1-c1ccc(C(=O)N(C)CC2CN(C(C)=O)C2)c(S(C)(=O)=O)c1 [Compound 26],> 10000 nM
16,COc1ccccc1-c1ccc(C(=O)N(C)CC2CCC(O)CC2)c(S(C)(=O)=O)c1 (stereo not shown) [Compound 35],100 to 1000 nM
17,COc1ccccc1-c1ccc(C(=O)N(C)Cc2cc[nH]c(=O)c2)c(S(C)(=O)=O)c1 [Compound 28],10 to 100 nM
18,COc1ccccc1-c1ccc(C(=O)N(C)[C@H](C)C2CCCC2)c(S(C)(=O)=O)c1 [Compound 33],1000 to 10000 nM
19,CSc1ccccc1-c1ccc(C(=O)N(C)Cc2cc[nH]c(=O)c2)c(S(C)(=O)=O)c1 [Compound 18],1000 to 10000 nM
20,CSc1ccccc1-c1ccc(C(=O)N(C)Cc2cc[nH]c2)c(S(C)(=O)=O)c1 [Compound 11],10 to 100 nM
21,CSc1ccccc1-c1ccc(C(=O)N(C)Cc2cnoc2)c(S(C)(=O)=O)c1 [Compound 7],100 to 1000 nM
22,CSc1ccccc1-c1ccc(C(=O)N(C)[C@H](C)C2CC2)c(S(C)(=O)=O)c1 [Compound 19],100 to 1000 nM

row,Structure (SMILES),Kd
1,COc1ccccc1-c1ccc(C(=O)N(C)CC2COC2)c(S(C)(=O)=O)c1 [Compound 30],1000 to 10000 nM
2,CNC(=O)c1ccc(-c2ccccc2SC)cc1S(C)(=O)=O [Compound 1],100 to 1000 nM
3,CSc1ccccc1-c1ccc(C(=O)N(C)[C@H](C)C2CCCC2)c(S(C)(=O)=O)c1 [Compound 20],100 to 1000 nM
4,CC(C)c1ccccc1-c1ccc(C(=O)N(C)CC2CCCCC2)c(S(C)(=O)=O)c1 [Compound 46],100 to 1000 nM
5,COc1ccccc1-c1ccc(C(=O)N(C)[C@H](C)C2CC2)c(S(C)(=O)=O)c1 [Compound 32],1000 to 10000 nM
6,Cc1ccccc1-c1ccc(C(=O)N(C)CC2CCCCC2)c(S(C)(=O)=O)c1 [Compound 38],100 to 1000 nM
7,CSc1ccccc1-c1ccc(C(=O)N(C)Cc2ccc3c(c2)OCO3)c(S(C)(=O)=O)c1 [Compound 3],10 to 100 nM
8,CSc1ccccc1-c1ccc(C(=O)N(C)c2ccccc2)c(S(C)(=O)=O)c1 [Compound 12],1000 to 10000 nM
9,CSc1ccccc1-c1ccc(C(=O)N(C)C2CCCCC2)c(S(C)(=O)=O)c1 [Compound 9],1000 to 10000 nM
10,CN(CC1CCCCC1)C(=O)c1ccc(-c2cccc3ccoc23)cc1S(C)(=O)=O [Compound 47],> 10000 nM
11,CSc1ccccc1-c1ccc(C(=O)N(C)[C@H](C)C2CCC2)c(S(C)(=O)=O)c1 [Compound 14],100 to 1000 nM
12,CCc1ccccc1CN(C)C(=O)c1ccc(-c2ccccc2SC)cc1S(C)(=O)=O [Compound 8],100 to 1000 nM
13,CSc1ccccc1-c1ccc(C(=O)N(C)CC2CCCCC2)c(S(C)(=O)=O)c1 [Compound 2],100 to 1000 nM
14,CN(CC1CCCCC1)C(=O)c1ccc(-c2ccccc2C(F)(F)F)cc1S(C)(=O)=O [Compound 39],100 to 1000 nM
15,CSc1ccccc1-c1ccc(C(=O)N(C)CC2CN(C(C)=O)C2)c(S(C)(=O)=O)c1 [Compound 13],100 to 1000 nM
16,CSc1ccccc1-c1ccc(C(=O)N(C)Cc2ccsc2)c(S(C)(=O)=O)c1 [Compound 4],100 to 1000 nM
17,CN(CC1CCCCC1)C(=O)c1ccc(-c2ccc(F)cc2C2CC2)cc1S(C)(=O)=O [Compound 41],10 to 100 nM
18,CN(CC1CCCCC1)C(=O)c1ccc(-c2ccc(F)cc2)cc1S(C)(=O)=O [Compound 54],1000 to 10000 nM
19,CN(CC1CCCCC1)C(=O)c1ccc(-c2ccccc2C(C)(C)O)cc1S(C)(=O)=O [Compound 42],100 to 1000 nM
20,COc1cc(CN(C)C(=O)c2ccc(-c3ccccc3OC)cc2S(C)(=O)=O)ccn1 [Compound 27],10 to 100 nM
21,COc1cc(CN(C)C(=O)c2ccc(-c3ccccc3SC)cc2S(C)(=O)=O)ccn1 [Compound 16],100 to 1000 nM
